Assay results reported in PubChem BioAssay AID248 (DTP/NCI, 2004).
Toxic doses and inconclusive results are not listed. Rule as the data show it: active = T/C of 150% or more; inactive = T/C below 125%. Peptide text beside a SMILES is read from it. * marks the point of attachment. Boc = CC(C)(C)OC(=O)*

Test system: L1210 leukemia ip in BDF1 mice, survival T/C
Assay: NCI In Vivo Anticancer Drug Screen. Data for tumor model L1210 Leukemia (intraperitoneal) in B6D2F1 (BDF1) mice
Details: endpoint: mean survival time, higher = longer survival
Procedure, shortened: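 Tumor was transplanted into mice, which were then dosed with test compound or vehicle alone. Survival was recorded for each group, and the treated figure was expressed relative to the control figure.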

[1] = dose: 100.0 mg/kg/injection, schedule: Q01DX009 (ip), vehicle: Klucel (hydroxypropylcellulose) (HPC)
[2] = dose: 200.0 mg/kg/injection, schedule: Q01DX009 (ip), vehicle: Klucel (hydroxypropylcellulose) (HPC)
[3] = dose: 400.0 mg/kg/injection, schedule: Q01DX009 (ip), vehicle: Klucel (hydroxypropylcellulose) (HPC)
[4] = dose: 100.0 mg/kg/injection, schedule: Q04DX003 (ip), vehicle: Klucel (hydroxypropylcellulose) (HPC)
[5] = dose: 200.0 mg/kg/injection, schedule: Q04DX003 (ip), vehicle: Klucel (hydroxypropylcellulose) (HPC)
[6] = dose: 400.0 mg/kg/injection, schedule: Q04DX003 (ip), vehicle: Klucel (hydroxypropylcellulose) (HPC)
[7] = dose: 100.0 mg/kg/injection, schedule: Q01DX001 (ip), vehicle: saline with Tween-80
[8] = dose: 50.0 mg/kg/injection, schedule: Q01DX001 (ip), vehicle: saline
[9] = dose: 100.0 mg/kg/injection, schedule: Q04DX002 (ip), vehicle: Klucel (hydroxypropylcellulose) (HPC)
[10] = dose: 200.0 mg/kg/injection, schedule: Q04DX002 (ip), vehicle: Klucel (hydroxypropylcellulose) (HPC)
[11] = dose: 400.0 mg/kg/injection, schedule: Q04DX002 (ip), vehicle: Klucel (hydroxypropylcellulose) (HPC)
[12] = dose: 100.0 mg/kg/injection, schedule: Q01DX001 (ip), vehicle: saline
[13] = dose: 100.0 mg/kg/injection, schedule: Q04DX003 (ip), vehicle: saline
[14] = dose: 200.0 mg/kg/injection, schedule: Q04DX003 (ip), vehicle: saline
[15] = dose: 400.0 mg/kg/injection, schedule: Q04DX003 (ip), vehicle: saline

Measured: T/C

O=C(COc1ccc(Cl)cc1)NCCc1ccccc1
inactive: [1] 97 % of control | [2] 92 % of control | [3] 98 % of control

CC1CCc2cccc(NC(=O)NCCCl)c21 (stereo not drawn)
inactive: dose: 100.0 mg/kg/injection, schedule: Q01DX001 (ip), vehicle: Klucel (hydroxypropylcellulose) (HPC) 99 % of control | [4] 92 % of control | dose: 200.0 mg/kg/injection, schedule: Q01DX001 (ip), vehicle: Klucel (hydroxypropylcellulose) (HPC) 91 % of control | [5] 92 % of control | dose: 400.0 mg/kg/injection, schedule: Q01DX001 (ip), vehicle: Klucel (hydroxypropylcellulose) (HPC) 96 % of control | [6] 92 % of control

Oc1ccc2ccccc2c1/C=N/N=C/c1c(O)ccc2ccccc12
inactive: [4] 96 % of control | [5] 91 % of control | dose: 300.0 mg/kg/injection, schedule: Q01DX009 (ip), vehicle: Klucel (hydroxypropylcellulose) (HPC) 98 % of control | [6] 88 % of control

Oc1ccccc1C=NCC[N-]CCN=Cc1ccccc1O.[Cu+]
inactive: dose: 1.56 mg/kg/injection, schedule: Q01DX009 (ip), vehicle: Klucel (hydroxypropylcellulose) (HPC) 91 % of control | dose: 1.56 mg/kg/injection, schedule: Q04DX003 (ip), vehicle: Klucel (hydroxypropylcellulose) (HPC) 95 % of control | dose: 3.13 mg/kg/injection, schedule: Q01DX009 (ip), vehicle: Klucel (hydroxypropylcellulose) (HPC) 94 % of control | dose: 3.13 mg/kg/injection, schedule: Q04DX003 (ip), vehicle: Klucel (hydroxypropylcellulose) (HPC) 93 % of control | dose: 6.25 mg/kg/injection, schedule: Q01DX009 (ip), vehicle: Klucel (hydroxypropylcellulose) (HPC) 94 % of control | dose: 6.25 mg/kg/injection, schedule: Q04DX003 (ip), vehicle: Klucel (hydroxypropylcellulose) (HPC) 97 % of control

N/C(=N\N=C\c1ccc(-c2ccccc2)cc1)N[N+](=O)[O-]
inactive: dose: 50.0 mg/kg/injection, schedule: Q01DX001 (ip), vehicle: carboxymethylcellulose (CMC) 104 % of control | dose: 100.0 mg/kg/injection, schedule: Q01DX001 (ip), vehicle: carboxymethylcellulose (CMC) 100 % of control | dose: 200.0 mg/kg/injection, schedule: Q01DX001 (ip), vehicle: carboxymethylcellulose (CMC) 93 % of control

Oc1cc2ccc3c(c2cc1O)CCc1cn[nH]c1-3
inactive: [7] 92 % of control | dose: 400.0 mg/kg/injection, schedule: Q01DX001 (ip), vehicle: saline with Tween-80 92 % of control

CSc1cc(C)n2nnnc2n1
inactive: dose: 12.5 mg/kg/injection, schedule: Q01DX001 (ip), vehicle: saline 100 % of control | dose: 25.0 mg/kg/injection, schedule: Q01DX001 (ip), vehicle: saline 96 % of control | [8] 100 % of control

COc1cc(/C=N/N=C(N)N)cc(I)c1O
inactive: dose: 15.0 mg/kg/injection, schedule: Q01DX Z (ip), vehicle: carboxymethylcellulose (CMC) 100 % of control | dose: 30.0 mg/kg/injection, schedule: Q01DX Z (ip), vehicle: carboxymethylcellulose (CMC) 106 % of control | dose: 30.0 mg/kg/injection, schedule: Q01DX Z (oral), vehicle: carboxymethylcellulose (CMC) 102 % of control | dose: 60.0 mg/kg/injection, schedule: Q01DX Z (ip), vehicle: carboxymethylcellulose (CMC) 112 % of control | dose: 60.0 mg/kg/injection, schedule: Q01DX Z (oral), vehicle: carboxymethylcellulose (CMC) 95 % of control | dose: 120.0 mg/kg/injection, schedule: Q01DX Z (oral), vehicle: carboxymethylcellulose (CMC) 98 % of control

COC(=O)C(Cc1ccccc1)NC(=O)C(Cc1ccccc1)NC(=O)OC(C)(C)C (stereo not drawn) (Boc-Phe-Phe-OMe; configuration not given here)
inactive: [9] 94 % of control | [10] 101 % of control | [11] 108 % of control

Cc1cccc(C)c1NC(=O)Oc1ccc(C2CCCCC2)cc1
inactive: [1] 101 % of control | [4] 91 % of control | [2] 97 % of control | [5] 93 % of control | [3] 94 % of control | [6] 88 % of control

CCCNC(=O)Oc1cccc(C)c1
inactive: [9] 100 % of control | [10] 106 % of control | [11] 110 % of control

COc1cc2[nH]c(=O)c3cccn3c(=O)c2cc1OC
inactive: dose: 50.0 mg/kg/injection, schedule: Q04DX002 (ip), vehicle: other 102 % of control | dose: 100.0 mg/kg/injection, schedule: Q04DX002 (ip), vehicle: other 105 % of control | dose: 200.0 mg/kg/injection, schedule: Q04DX002 (ip), vehicle: other 94 % of control

NC(CC1C=CC=CC1)C(=O)O (stereo not drawn)
inactive: [8] 108 % of control | [12] 102 % of control | dose: 200.0 mg/kg/injection, schedule: Q01DX001 (ip), vehicle: saline 98 % of control | dose: 400.0 mg/kg/injection, schedule: Q01DX001 (ip), vehicle: saline 96 % of control

Cc1cc(C)c(B(O)O)c(C)c1
inactive: dose: 100.0 mg/kg/injection, schedule: Q01DX009 (ip), vehicle: saline 100 % of control | [13] 105 % of control | dose: 200.0 mg/kg/injection, schedule: Q01DX009 (ip), vehicle: saline 96 % of control | [14] 100 % of control | dose: 400.0 mg/kg/injection, schedule: Q01DX009 (ip), vehicle: saline 103 % of control | [15] 102 % of control

CN(C)CCCOC(=O)C1C2CC3OC(=O)C1C3C2 (stereo not drawn)
inactive: [13] 93 % of control | [14] 96 % of control | [15] 101 % of control

C[N+]1(C)C2CSCC1CC(O)C2 (stereo not drawn)
inactive: dose: 12.5 mg/kg/injection, schedule: Q01DX009 (ip), vehicle: saline 105 % of control | dose: 12.5 mg/kg/injection, schedule: Q04DX003 (ip), vehicle: saline 104 % of control | dose: 25.0 mg/kg/injection, schedule: Q01DX009 (ip), vehicle: saline 117 % of control | dose: 25.0 mg/kg/injection, schedule: Q04DX003 (ip), vehicle: saline 98 % of control | dose: 50.0 mg/kg/injection, schedule: Q01DX009 (ip), vehicle: saline 106 % of control | dose: 50.0 mg/kg/injection, schedule: Q04DX003 (ip), vehicle: saline 102 % of control | [13] 101 % of control

COc1ccc2c(c1OC(C)=O)-c1cc(O)cc3c1C(C2)N(C(=O)CN(CCO)CCO)CC3 (stereo not drawn)
inactive: dose: 25.0 mg/kg/injection, schedule: Q04DX003 (ip), vehicle: DMSO 104 % of control | dose: 50.0 mg/kg/injection, schedule: Q04DX003 (ip), vehicle: DMSO 93 % of control | dose: 100.0 mg/kg/injection, schedule: Q04DX003 (ip), vehicle: DMSO 89 % of control | dose: 200.0 mg/kg/injection, schedule: Q04DX003 (ip), vehicle: DMSO 104 % of control | dose: 400.0 mg/kg/injection, schedule: Q04DX003 (ip), vehicle: DMSO 97 % of control

CCCCCCNP(=O)(Oc1ccccc1)Oc1ccccc1
inactive: [4] 97 % of control | [5] 97 % of control | [6] 105 % of control

CN1CC(CO)=CC2c3cccc4[nH]cc(c34)CC21 (stereo not drawn)
inactive: [12] 94 % of control

CSc1ccc(C2CCCCC2OS(C)(=O)=O)cc1 (stereo not drawn)
inactive: [4] 95 % of control | [5] 92 % of control | [6] 95 % of control

CCCC(OC(C)=O)C(C)[N+](=O)[O-] (stereo not drawn)
inactive: dose: 50.0 mg/kg/injection, schedule: Q01DX001 (ip), vehicle: saline with Tween-80 96 % of control | [7] 92 % of control | dose: 200.0 mg/kg/injection, schedule: Q01DX001 (ip), vehicle: saline with Tween-80 103 % of control
